Measurements from patent US11472771B2, “Process for making amino diaryl ethers and amino diaryl ethers hydrochloride salts” (CELLESTIA BIOTECH AG, priority 2018, dated 2022).

Tests used:
Format in all cases: physicochemical
[1] = Stability study, storage 5° C.
Description: For 6-(4-(tert-butyl)phenoxy)pyridin-3-amine monohydrochloride two different types of stability studies were performed including short-term and long-term stability studies, respectively, […] In terms of analytical determinations six tests were involved including appearance, assay free base mean and purity mean, water, IR and XRPD. Appearance was determined by visual inspection. The product should be a white or off-white powder. Water content was determined according to USP <921> coulometric method. Identification of 6-(4-(tert-butyl)phenoxy)pyridin-3-amine monohydrochloride by IR spectroscopy was done according to USP <197>, comparing the spectrum obtained to that of the reference standard. X-Ray powder diffraction (XRPD) was performed according to USP <941> against the reference XRPD spectrum. Purity and assay of free base was done by HPLC-UV. Two methods were used. Mobile phases in the first method were water and acetonitrile. Mobile phases in the second method were water (0.5 mL of trifluoroacetic acid was added to 1000 mL of water) and acetonitrile (0.4 mL of trifluoroacetic acid was added to 1000 mL of acetonitrile). Equipment and chromatographic conditions for identification and determination of purity and assay of the 6-(4-(tert-butyl)phenoxy)pyridin-3-amine monohydrochloride by HPLC-UV according to the first method and the second method, respectively, are shown in Tables 5 and 6. [table] [table]

[2] = Forced degradation: solid state stressed by UV/VIS radiation
Description: Instrumentation: • Light stability chamber: Solarbox 1500e • Oven: Salvis Vacuum drying oven VC-20 • Heating unit: Ikamag RET-GS with IKA ETS SD and stainless steel heating block • Vials: Supelco V-Vials and screw caps with PTFE septa • Gas tight vials: Agilent 10 mL HS-GC clear glass vials and crimp caps with Not applicable PTFE septa • Quartz glass cuvette: Hellma precision cuvette Suprasil, Type 117.100-QS, 10 mm path length, screw capped with silicone septa • HPLC: As described above
The HPLC test method described above was used to determine the assay and purity of 6-(4-(tert-butyl)phenoxy)pyridin-3-amine monohydrochloride before the forced degradation experiments and the area % content of individual impurities and degradation products in the 6-(4-(tert-butyl)phenoxy)pyridin-3-amine monohydrochloride samples obtained from the degradation experiments.
The assay and the purity of 6-(4-(tert-butyl)phenoxy)pyridin-3-amine monohydrochloride were determined using HPLC with UV detection at 220 nm utilizing the area normalization methodology for purity determination and external standard calibration for assay determination. During all experiments the UV spectra from 200 nm to 950 nm have been recorded and also the peak purity of 6-(4-(tert-butyl)phenoxy)pyridin-3-amine monohydrochloride was assessed.
Two samples of 20.23 mg and 20.17 mg of 6-(4-(tert-butyl)phenoxy)pyridin-3-amine monohydrochloride were weighed each into a quartz glass cuvette. Both cuvettes were closed with the screw cap. One of the cuvettes was protected by wrapping it in aluminium foil. This sample served as dark control. Both cuvettes were placed alongside each other in the light stability chamber and were then exposed in accordance to guideline to UV/VIS radiation applying energy of 500 W/m^2 until a total illumination of 1200 kLux·h was reached. After exposure to the UV/VIS radiation for an illumination of 1200 kLux·h the sample was brought to room temperature and the content of the cuvette was dissolved in about 2 mL of the sample solvent (acetonitrile/water 3:1 v/v). The obtained solution was quantitatively transferred into a 25 mL volumetric flask. Then the cuvette was rinsed five times with about 2 mL sample solvent, whereupon each time the content of the cuvette was also transferred into the 25 mL volumetric flask. After the flask was filled up to volume with the sample solvent and was shaken well, an aliquot of this solution was transferred into a HPLC vial for analysis. Result: In solid state 6-(4-(tert-butyl)phenoxy)pyridin-3-amine monohydrochloride is stable against UV/VIS radiation. After an illumination of 1200 kLux·h, applying an energy of 500 W/m^2, the purity decreased by 0.6 area % which was mainly related to the occurrence of two unknown impurities.

[3] = Accelerated stability study, storage 40° C., 75% rh; conditions: 6 months stability studies
Description: For 6-(4-(tert-butyl)phenoxy)pyridin-3-amine monohydrochloride two different types of stability studies were performed including short-term and long-term stability studies, respectively, at 25° C. (RH, 60%), −5° C. and −20° C. for 36 months and an accelerated study at 40° C. (RH, 75%) over 6 months. In terms of analytical determinations six tests were involved including appearance, assay free base mean and purity mean, water, IR and XRPD. Appearance was determined by visual inspection. The product should be a white or off-white powder. Water content was determined according to USP <921> coulometric method. Identification of 6-(4-(tert-butyl)phenoxy)pyridin-3-amine monohydrochloride by IR spectroscopy was done according to USP <197>, comparing the spectrum obtained to that of the reference standard. X-Ray powder diffraction (XRPD) was performed according to USP <941> against the reference XRPD spectrum. Purity and assay of free base was done by HPLC-UV. Two methods were used. Mobile phases in the first method were water and acetonitrile. Mobile phases in the second method were water (0.5 mL of trifluoroacetic acid was added to 1000 mL of water) and acetonitrile (0.4 mL of trifluoroacetic acid was added to 1000 mL of acetonitrile). Equipment and chromatographic conditions for identification and determination of purity and assay of the 6-(4-(tert-butyl)phenoxy)pyridin-3-amine monohydrochloride by HPLC-UV according to the first method and the second method, respectively, are shown in Tables 5 and 6. [table] [table]

[4] = 6 months stability studies, 55° C., 3 mths
[5] = 6 months stability studies, 55° C., 6 mths
[6] = 6 months stability studies, 55° C., Release data
[7] = 36 months stability studies, 5° C., 6 mths
[8] = 36 months stability studies, 5° C., 9 mths
[9] = 36 months stability studies, 5° C., 12 mths
[10] = 36 months stability studies, 5° C., 18 mths
[11] = 36 months stability studies, 5° C., 24 mths
[12] = solid state, illumination of 1200 kLux·h, 500 W/m^2

SMILES: CC(C)(C)c1ccc(Oc2ccc(N)cn2)cc1.Cl [6-(4-(tert-butyl)phenoxy)pyridin-3-amine monohydrochloride]
- Assay free base, mean [1, 4]: 87.2 % m/m
- IR, conforms to reference [1, 4]: complies
- Purity, mean [1, 4]: 99 % area
- Water [1, 4]: 0.02 % m/m
- Assay free base, mean [1, 5]: 87.6 % m/m
- IR, conforms to reference [1, 5]: complies
- Purity, mean [1, 5]: 99 % area
- Water [1, 5]: 0.02 % m/m
- Assay free base, mean [1, 6]: 89.4 % m/m
- IR, conforms to reference [1, 6]: complies
- Purity, mean [1, 6]: 100.0 % area
- Water [1, 6]: 0.01 % m/m
- Water ([1]; 36 months stability studies, 5° C., 3 mths): 0.02 % m/m
- Assay free base, mean [1, 7]: 87.5 % m/m
- Purity, mean [1, 7]: 100.0 % area
- Water [1, 7]: 0.02 % m/m
- Assay free base, mean [1, 8]: 89.6 % m/m
- Purity, mean [1, 8]: 100.0 % area
- Water [1, 8]: 0.03 % m/m
- Assay free base, mean [1, 9]: 87.3 % m/m
- Purity, mean [1, 9]: 100.0 % area
- Water [1, 9]: 0.02 % m/m
- Assay free base, mean [1, 10]: 87.0 % m/m
- Purity, mean [1, 10]: 100.0 % area
- Water [1, 10]: 0.01 % m/m
- Assay free base, mean [1, 11]: 88.3 % m/m
- Purity, mean [1, 11]: 100.0 % area
- Water [1, 11]: 0.02 % m/m
- Water ([1]; 36 months stability studies, 5° C., Release data): 0.01 % m/m
- decrease in the assay ([2]; dark control (cuvette wrapped in aluminium foil) in the light stability chamber): 2.4 % w/w
- stability against UV/VIS radiation ([2]; solid state): stable
- decrease in the assay [2, 12]: 2.1 % w/w
- purity decrease [2, 12]: 0.6 area %
- Assay free base, mean ([3]; 3 mths): 89.2 % m/m
- IR, conforms to reference ([3]; 3 mths): complies
- Purity, mean ([3]; 3 mths): 99.6 % area
- Water ([3]; 3 mths): 0.01 % m/m
- Assay free base, mean ([3]; 6 mths): 87.4 % m/m
- IR, conforms to reference ([3]; 6 mths): complies
- Purity, mean ([3]; 6 mths): 98.9 % area
- Water ([3]; 6 mths): 0.02 % m/m
- XRPD, conforms to reference ([3]; 6 mths): complies
- Assay free base, mean ([3]; Release data): 87.0 % m/m
- IR, conforms to reference ([3]; Release data): complies
- Purity, mean ([3]; Release data): 99.2 % area
- Water ([3]; Release data): 0.02 % m/m
